Results published in PMC6600512, “Interactions between β-Lactoglobulin and 3,3′-Diindolylmethane in Model System” (Molecules, 2019).

Molecular target: T1, β-Lactoglobulin (β-LG) (Bos taurus, UniProt P02754)
T1 construct: gene LGB
T1 sequence (P02754 17-178): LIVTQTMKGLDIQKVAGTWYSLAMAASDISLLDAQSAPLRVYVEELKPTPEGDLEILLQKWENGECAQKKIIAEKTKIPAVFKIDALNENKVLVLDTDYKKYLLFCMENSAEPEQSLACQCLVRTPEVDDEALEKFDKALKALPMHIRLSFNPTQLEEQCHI
Experiment: intrinsic fluorescence enhancement titration (binding constant from […]/ΔF vs […]/Cq); supported by CD, FT-IR, UV, DLS and zeta potential
Conditions: read-out: intrinsic fluorescence enhancement titration (binding constant from 1/ΔF vs 1/Cq) (converted)

**Q.** How did the Kd turn out when `c1ccc2c(Cc3c[nH]c4ccccc34)c[nH]c2c1` [DIM, 3,3′-diindolylmethane] was run?
**A.** Its Kd is 1490 nM.
